Test results as given in patent US11840686B2, “Modulation of prekallikrein (PKK) expression” (Ionis Pharmaceuticals, Inc., priority 2013, dated 2023).
pIC50: −log10 of the molar value. Strand notation (5' to 3'): a small letter for the sugar, then the base; units joined by * are phosphorothioate-linked, units joined directly phosphodiester-linked; [ ] holds rarer units or linkages, { } end groups; capitals alone tell only the bases. e = 2'-O-(2-methoxyethyl) (MOE); [5mC] = 5-methylcytosine; d = 2'-deoxy (DNA)

Key:
human PKK mRNA [1] = assay: Antisense inhibition of human PKK mRNA in HepaRG cells, 5,000 nM (Example 2); assay type: cell-based
Outline: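 HepaRG cells (20,000/well) electroporated with 5,000 nM MOE gapmer (phosphorothioate backbone, 5-methylcytosines) and harvested after ~24 h. PKK mRNA measured by qRT-PCR with primer probe set RTS3454, normalized to RIBOGREEN total RNA; percent inhibition versus untreated cells.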

human PKK mRNA [2] = assay: Dose-dependent antisense inhibition of human PKK in HepaRG cells, 0.19-5.00 uM (Example 5); assay type: cell-based; details: for percent inhibition of PKK mRNA, 0.19 μM: 0.19 μM antisense oligonucleotide; for percent inhibition of PKK mRNA, 0.56 μM: 0.56 μM antisense oligonucleotide; for percent inhibition of PKK mRNA, 1.67 μM: 1.67 μM antisense oligonucleotide; for percent inhibition of PKK mRNA, 5.00 μM: 5.00 μM antisense oligonucleotide
Experimental: Cells were plated at a density of 20,000 cells per well and transfected using electroporation with 0.19 μM, 0.56 μM, 1.67 μM, and 5.00 μM concentrations of antisense oligonucleotide. After a treatment period of approximately 16 hours, RNA was isolated from the cells and PKK mRNA levels were measured by quantitative real-time PCR. Human PKK primer probe set RTS3454 was used to measure mRNA levels. PKK mRNA levels were adjusted according to total RNA content, as measured by RIBOGREEN®. The antisense oligonucleotides were tested in a series of experiments that had similar culture conditions.
The half maximal inhibitory concentration (IC50) of each oligonucleotide is also presented.

[3] = HepaRG cells, electroporation, approximately 16 hours, Table 40
[4] = 4 point dose response, HepaRG cells, Table 40
[5] = human PKK mRNA, HepaRG cells, 5-10-5 motif oligonucleotides targeting SEQ ID NO: 1 and 10
[6] = HepaRG cells, electroporation with 5,000 nM antisense oligonucleotide, approximately 24 hours, PKK mRNA by RT-PCR (RTS3454), relative to untreated control cells, Table 6 experiment
[7] = HepaRG cells, electroporation, approximately 16 hours, Table 38
[8] = Table 34, HepaRG, electroporation, ~16 h
[9] = HepaRG cells, electroporation, approximately 16 hours, Table 36
[10] = HepaRG cells, electroporation, approximately 16 hours, Table 35

Row | Substance | percent inhibition of PKK at 0.19 μM (human PKK mRNA [2]; [3]) [%] | percent inhibition of PKK at 0.56 μM (human PKK mRNA [2]; [3]) [%] | percent inhibition of PKK at 1.67 μM (human PKK mRNA [2]; [3]) [%] | percent inhibition of PKK at 5.00 μM (human PKK mRNA [2]; [3]) [%] | pIC50 (human PKK mRNA [2]; [4]) | % inhibition (human PKK mRNA [1]; [5]) [%] | percent inhibition of PKK mRNA, 0.19 μM (human PKK mRNA [2]; HepaRG cells) [%] | percent inhibition of PKK mRNA, 0.56 μM (human PKK mRNA [2]; HepaRG cells) [%] | percent inhibition of PKK mRNA, 1.67 μM (human PKK mRNA [2]; HepaRG cells) [%] | pIC50 (human PKK mRNA [2]; HepaRG cells, 0.19-5.00 μM) | % inhibition (human PKK mRNA [1]; [6]) [%] | percent inhibition of PKK mRNA, 5.00 μM (human PKK mRNA [2]; HepaRG cells) [%] | other results
1 | 547780 (antisense e[5mC]*e[5mC]*e[5mC]*e[5mC]*eT*d[5mC]*dT*dT*dA*dA*dA*dT*dA*dG*d[5mC]*eA*e[5mC]*eA*eT*eG) [compound 547780] | 0 | 10 | 36 | 55 | 5.41 |  |  |  |  |  |  |  | % inhibition (human PKK mRNA [1]; HepaRG cells, 5,000 nM antisense oligonucleotide, 5-10-5 gapmers, Table 17): 67%
2 | 546896 (eG*eT*eA*eT*e[5mC]*dA*d[5mC]*dT*dG*dT*d[5mC]*d[5mC]*dT*dA*dT*eG*eT*e[5mC]*eA*e[5mC]; antisense) [compound 546896] | 0 | 45 | 82 | 97 | 6.10 | 75 | 35 | 60 | 83 | 6.40 |  |  | 
3 | 546195 (antisense eG*e[5mC]*eT*eA*eA*d[5mC]*d[5mC]*dT*dT*dA*dG*dA*d[5mC]*dA*d[5mC]*eA*eT*eT*eA*eA) [compound 546195] |  |  |  |  |  |  | 0 | 27 | 91 | 6.05 | 83 | 94 | percent inhibition of PKK at 0.19 μM (human PKK mRNA [2]; [7]): 34%; percent inhibition of PKK at 0.56 μM (human PKK mRNA [2]; [7]): 51%; percent inhibition of PKK at 1.67 μM (human PKK mRNA [2]; [7]): 79%; percent inhibition of PKK at 5.00 μM (human PKK mRNA [2]; [7]): 92%; pIC50 (human PKK mRNA [2]; 4 point dose response, HepaRG cells, Table 38): 6.30
4 | 548758 (antisense e[5mC]*eA*eG*eT*dA*dT*d[5mC]*dA*d[5mC]*dT*dG*dT*dA*e[5mC]*eT*eA*eG) [compound 548758] |  |  |  |  |  |  |  |  |  |  |  |  | % inhibition (human PKK mRNA [1]; human PKK mRNA, HepaRG cells, 5,000 nM antisense oligonucleotide, Table 18): 97%; percent inhibition of PKK at 0.19 0μM (human PKK mRNA [2]; 0.19 0μM, HepaRG cells, electroporation, approximately 16 hours, Table 41): 0%; percent inhibition of PKK at 0.56 0μM (human PKK mRNA [2]; 0.56 0μM, HepaRG cells, electroporation, approximately 16 hours, Table 41): 72%; percent inhibition of PKK at 1.67 1μM (human PKK mRNA [2]; 1.67 1μM, HepaRG cells, electroporation, approximately 16 hours, Table 41): 79%; pIC50 (human PKK mRNA [2]; 4 point dose response, HepaRG cells, Table 41): 6.22; percent inhibition of PKK at 0.19 μM (human PKK mRNA [2]; [8]): 41%; percent inhibition of PKK at 0.56 μM (human PKK mRNA [2]; [8]): 47%; percent inhibition of PKK at 1.67 μM (human PKK mRNA [2]; [8]): 82%; percent inhibition of PKK at 5.00 μM (human PKK mRNA [2]; [8]): 94%; pIC50 (human PKK mRNA [2]; Table 34, PKK mRNA, HepaRG, electroporation, ~16 h): 6.40
5 | 546897 (eA*eG*eT*eA*eT*d[5mC]*dA*d[5mC]*dT*dG*dT*d[5mC]*d[5mC]*dT*dA*eT*eG*eT*e[5mC]*eA; antisense) [compound 546897] |  |  |  |  |  | 90 | 16 | 17 | 69 | 6.10 |  | 97 | percent inhibition of PKK at 0.19 μM (human PKK mRNA [2]; [9]): 40%; percent inhibition of PKK at 0.56 μM (human PKK mRNA [2]; [9]): 56%; percent inhibition of PKK at 1.67 μM (human PKK mRNA [2]; [9]): 71%; percent inhibition of PKK at 5.00 μM (human PKK mRNA [2]; [9]): 95%; pIC50 (human PKK mRNA [2]; 4 point dose response, HepaRG cells, Table 36): 6.40
6 | 546190 (antisense e[5mC]*eT*e[5mC]*eT*e[5mC]*dA*dT*dA*dT*d[5mC]*dA*dA*d[5mC]*dT*d[5mC]*e[5mC]*eT*eT*eT*eA) [compound 546190] |  |  |  |  |  |  | 21 | 34 | 76 | 6.15 | 92 | 98 | percent inhibition of PKK at 0.19 μM (human PKK mRNA [2]; [10]): 33%; percent inhibition of PKK at 0.56 μM (human PKK mRNA [2]; [10]): 65%; percent inhibition of PKK at 1.67 μM (human PKK mRNA [2]; [10]): 86%; pIC50 (human PKK mRNA [2]; 4 point dose response, HepaRG cells, Table 35): 6.40
